Assay results published in patent US8637560B2, “Imidazolidinone compounds, methods to inhibit deubiquitination and methods of treatment” (The United States of America as Represented by the …, priority 2007, dated 2014).
Where two headings read alike, the source gives them in different places. Residues, ends and D or L forms follow the SMILES beside them. *: point of attachment. Cbz = O=C(OCc1ccccc1)*

Tests used:
JEKO-1 cells = experiment: Combination treatment of EerI and BH3 mimetic, MTT viability; settings: 48 h
Method: Cell viability was measured by the MTT assay. […] JEKO-1 cells were treated with the indicated compounds for 48 h. Cell viability was measured by the MTT assay.

TCRα-GFP = experiment: Degradation of overexpressed TCRα-GFP, immunoblot
MHC class I heavy chain = settings: permeabilized US11 cells
GFPμ = experiment: Degradation of GFPμ in astrocytoma cells, immunoblot; assay type: cell-based; settings: 12 h
Method: […]. Astrocytoma cells expressing HA-tagged GFPμ were treated with the indicated chemicals (12 h). The steady state levels of GFPμ in whole cell extracts (WCE) were analyzed by immunoblotting (IB). Where as indicated, GFPμ was first immunoprecipitated before immunoblotting analyses.
Since a large portion of p97 is localized in the cytosol, it may be involved in degradation of misfolded cytosolic proteins. In fact, GFPμ, a model proteasomal substrate (Bence et al., 2005) appeared to be degraded in a p97 dependent manner, because the expression of a dominant negative p97 mutant stabilized this substrate in part as a p97-associated form (data not shown).

Xbp1 mRNA = Xbp1 mRNA splicing by RT-PCR; settings: JEKO-1 cells
atx3 = experiment: In vitro atx3-dependent deubiquitination of immunoprecipitated atx3-substrate complexes; assay type: biochemical; settings: for effect on atx3-mediated deubiquitination when added to purified atx3-substrate complex: added in vitro; for deubiquitination of atx3-bound ubiquitin conjugates from treated cells: complex isolated from treated cells, compared with control cells
[1] = tested on: MHC class I heavy chain (HC); experiment: Degradation of MHC class I heavy chain in US11-expressing astrocytoma (A9) cells, fractionation and immunoblot; assay type: cell-based
Method: . […] The cells were permeabilized in a buffer containing 0.028% of digitonin, and fractionated into a pellet fraction containing the ER membranes and a supernatant fraction containing the cytosol (Shamu et al., 1999; Ye et al., 2001, 2003). HC was immunoprecipitated from detergent extracts of these fractions under denaturing condition, and analyzed by immunoblotting (Shamu et al., 1999; Wang et al., 2006). […] As a positive control, A9 cells were treated with MG132, a proteasome inhibitor. […] However, a significant fraction of HC accumulated in MG132-treated cells was non-ubiquitinated species with its N-linked glycan removed by a cytosolic N-glycanase (Hirsch et al., 2003; Blom et al., 2004). The accumulation of non-modified substrates upon inhibition of the proteasome function has been observed for many proteasomal substrates, and was generally attributed to deubiquitination by cytosolic DUBs. […]

eIF2α = eIF2α phosphorylation by immunoblotting; settings: JEKO-1 cells
[2] = tested on: polyubiquitinated proteins; experiment: Accumulation of polyubiquitinated proteins in treated cells, immunoblot; assay type: cell-based; settings: for accumulation of polyubiquitinated proteins in cells: EerI and structurally related analogues, FIG. 12C, D
NOXA = NOXA protein level by immunoblotting; assay type: cell-based; settings: variety of cancer and transformed cell lines
Method: . […] Protein extracts were analyzed by immunoblotting. […] (D) NOXA knock-down cells.
; FIG. 16; data not shown).

ATF6 = ATF6 activation in HeLa cells, immunoblotting; settings: HeLa cells expressing Flag-tagged ATF6
Method: (E) HeLa cells expressing Flag-tagged ATF6 were treated with the indicated chemicals. Cell extracts were analyzed by immunoblotting. (F) HeLa cells expressing Flag-tagged ATF6 were treated with the indicated chemicals and stained with Flag antibodies. N, nucleus. Arrows indicate the position of the Golgi.

[3] = tested on: recombinant retrovirus that expresses a GFP reporter gene; experiment: Production of recombinant GFP retrovirus in GP293 packaging cells; assay type: cell-based; settings: unidentified retrovirus, medium collected 36 hours later, GFP fluorescence in target cells, read-out: IC50 for inhibition of production of recombinant retrovirus
Method: […]. Infection was allowed to proceed for 10 hours before the medium was replaced with fresh medium. The expression of the GFP protein as a result of viral infection was measured by a fluorescence meter. […]. The IC50 was ˜3 uM.

JEKO cells = experiment: mRNA expression of BH3-domain proteins by quantitative RT-PCR
Method: The precipitated RNA was further purified by a RNA clean-up kit (Qiagen). The purified RNA was quantified, and used as template to synthesize cDNA. The expression of various genes was then determined by quantitative RT-PCR.

primary CLL cells = experiment: MTT viability assay, primary CLL samples; assay type: cell-based; settings: 3 days
Method: Experiments for FIGS. 1-5 were conducted in vitro by keeping cell lines in RPMI medium with 10% FCS and primary cells in AIM V medium. Cells were seeded into 96 well plates at a concentration of 4×10e5/ml for cell lines at a concentration of 5×10e6/mL for primary cells. Cells were incubated for 2 days (cell lines) or 3 days (primary samples) in the indicated concentration of drug (bortezomib from commercial clinical grade stock; EER1 provided by Dr. Ye and Dr. Trenkle). Viability was determined using the standard MTT assay. Synergy calculations were carried out with Calcusyn software.

[4] = tested on: p97-associated deubiquitination (PAD); experiment: In vitro deubiquitination of p97-bound substrates immunoprecipitated from treated cells; settings: for effect on PAD: p97 complexes from treated cells
Method: To study PAD, a previously established in vitro deubiquitination assay was used. p97 and its associated substrates immunoprecipitated from cell extracts were incubated in vitro.

CC1(C)C(N(O)C(=O)Nc2ccc(Cl)cc2)N(c2ccc(Cl)cc2)C(=O)N1CC(=O)N/N=C/C=Cc1ccc([N+](=O)[O-])o1 (stereo not drawn) [EERI, 1-(4-chloro-phenyl)-3-[3-(4-chloro-phenyl)-5,5-dimethyl-1-[3-(5-nitro-furan-2-yl)-allyldiene-hydrazinocarbonylmethyl]-2-oxo-imidazolidin-4-yl]-1-hydroxyl-urea]
effect of presence of EerI on cytotoxicity of the BH3 mimetic (JEKO-1 cells): strongly enhanced its cytotoxicity
polyubiquitinated TCRα-GFP (TCRα-GFP): accumulated polyubiquitinated TCRα-GFP
retrotranslocation and degradation of MHC class I heavy chain on addition to permeabilized cells (MHC class I heavy chain): did not inhibit
form of GFPμ in treated cells (GFPμ): present almost exclusively as polyubiquitinated form
splicing of Xbp1 mRNA (Xbp1 mRNA): induced the splicing of Xbp1
activity of atx3 purified from treated cells on exogenously added ubiquitin oligomers (Ub2-7) (atx3; DMSO- vs EerI-treated cells): equally active
effect on atx3-mediated deubiquitination when added to purified atx3-substrate complex (atx3): had no effect
deubiquitination of atx3-bound ubiquitin conjugates from treated cells (atx3): more resistant to deubiquitination
polyubiquitinated HC in the cytosol [1]: polyubiquitinated HC was accumulated in the cytosol
eIF2α phosphorylation (eIF2α): induced eIF2α phosphorylation
time after treatment at which cells start to accumulate polyubiquitinated proteins [2]: ~1.5 h
amount of polyubiquitinated proteins accumulated for a given time period ([2]; 293T cells, FIG. 6D): more polyubiquitinated proteins than MG132-treated cells
accumulation of polyubiquitinated proteins in cells [2]: accumulation of polyubiquitinated proteins
level of NOXA protein (NOXA): rapidly increased
ATF6 cleavage (ATF6): no increase in ATF6 cleavage
IC50 [3]: ~3000 nM
mRNA expression of BH3-domain proteins Noxa, Bim and Puma (JEKO cells): significantly induced
activity against primary CLL cells (primary CLL cells): highly active
effect on PAD [4]: blocks deubiquitination reactions associated with p97
reduction of p97-bound polyubiquitinated substrates after in vitro incubation ([4]; substrates isolated from treated cells, non-treated cells ~60%): ~10%

CC1(C)C(N(O)C(=O)Nc2cccc3ccccc23)N(c2cccc3ccccc23)C(=O)N1CC(=O)N/N=C/C=Cc1ccc([N+](=O)[O-])o1 (stereo not drawn) [Eeyarestatin II, 1-[5,5-dimethyl-3-naphthalen-1-yl-1 [3-(5-nitro-furan-2-yl)-allyldiene-hydrazinocarbonylmethyl]-2-oxo-imidazolidin-4-yl]-3-naphthalen-1-yl-1-hydroxyl-urea]
accumulation of polyubiquitinated proteins in cells [2]: accumulation of polyubiquitinated proteins

ubiquitin aldehyde [reference compound]
effect on atx3-mediated deubiquitination when added to purified atx3-substrate complex (atx3): inhibited

CC(C)C[C@H](NC(=O)[C@H](Cc1ccccc1)NC(=O)c1cnccn1)B(O)O [bortezomib, reference compound]
mRNA expression of BH3-domain proteins Noxa, Bim and Puma (JEKO cells): only induces the expression of Noxa

CC(C)C(C(=O)O)N1C(=O)/C(=C\c2ccc(Br)cc2)SC1=S (stereo not drawn) [BH3i-1, reference compound]
toxicity as a single agent in MCL cells (JEKO-1 cells): did not induce significant toxicity

CC(C)C[C@@H](C=O)NC(=O)[C@H](CC(C)C)NC(=O)[C@H](CC(C)C)NC(=O)OCc1ccccc1 [MG132, reference compound] (Cbz-Leu-Leu-Leu-aldehyde)
polyubiquitinated TCRα-GFP (TCRα-GFP): polyubiquitinated TCRα-GFP was accumulated
form of GFPμ in treated cells (GFPμ): mostly accumulated in the deubiquitinated form
deubiquitination of atx3-bound ubiquitin conjugates from treated cells (atx3): rapidly deconjugated
polyubiquitinated HC in the cytosol ([1]; A9 cells, 10 μM): accumulation of polyubiquitinated HC in the cytosol
effect on PAD [4]: did not apparently block PAD

O[C@H](CS)[C@H](O)CS (racemic) [DTT, dithiothreitol, reference compound]
ATF6 cleavage (ATF6): rapidly induced the cleavage of ATF6
